In patent publication US12233105B1, “Methods for storing and warming purified corticotropin compositions” (ANI Pharmaceuticals, Inc., priority 2022, dated 2025):

System: THP-1 Blue, Raw Blue, HEK-blue hTLR3, HEK-Blue hTLR4, HEK-Blue hNOD2
Assay: Innate immune response activation assays in TLR/NOD2 reporter cell lines
Format: cell-based
Settings: 5 cell lines covering TLR and NOD2 expression; 3 PPQ lots; highest drug substance concentration tested 10 μg/mL
Protocol: Method development, qualification, and testing for activation of innate immune response was performed. The innate immune assays performed compared 3 PPQ lots. The work was conducted using 5 cell lines to cover TLR and NOD2 expression (THP-1 Blue, Raw Blue, HEK-blue hTLR3, HEK-Blue hTLR4, HEK-Blue hNOD2). […] The highest drug substance concentration tested was 10 μg/mL. A dose of the sterile preparation of purified corticotropin at 80 U is, equivalent to approximately 1 mg of drug substance per total body weight of subject.

Row | Structure (SMILES) | dose response for activation of innate immune response
1 | CCCc1nc2c(N)nc3ccccc3c2s1 [CL075] | robust dose responses
2 | CC(=O)N[C@@H]1[C@@H](O[C@H](C)C(=O)N[C@@H](C)C(=O)N[C@H](CCC(=O)O)C(N)=O)[C@H](O)[C@@H](CO)O[C@H]1O [MDP] | robust dose responses
